In US6642221B1, “Vanadium compounds as anti-proliferative agents” (Parker Hughes Institute, priority 2000, dated 2003):
Where two headings read alike, the source gives them in different places.

How the values were obtained:
[1] = system: BT-20 breast cancer cells; assay: Immunocytochemistry and confocal microscopic analysis of mitotic spindles; assay type: cell-based, human; conditions: BT-20 cells; for mitotic spindle morphology (α-tubulin, DNA): confocal microscopy
Procedure: (§1) BT-20 and MDA-MB-231 breast cancer cells (HTB-19, HTB-26 ATCC, Rockville, Md.) and U373 glioblastoma cells (HTB-17 ATCC Rockville, Md.) were grown in MEM media modified with 10% Fetal Bovine serum and 1% Penicillin/Streptomycin (Life Technologies, Rockville Md.). Cells were seeded onto sterile 22 mm square coverslips in 6-well plates. Cells on coverslips were kept in an incubator for 24 hours prior to treatment. The following day, VDC or VDacac was added from a stock solution made in DMSO to yield final concentration ranging from 3.9 to 500 μM (final DMSO concentration=0.025%). Cells were returned to a 37° C. incubator for 24 hours.
At the appropriate time point, coverslips containing BT-20 cells were fixed in −20° C. methanol for 15 minutes followed by 15 minutes incubation in phosphate buffered saline +0.1% Triton X-100 (PBS+Tx). Coverslips were next incubated with a primary antibody recognizing α-tubulin (Sigma, St.Louis Mo.) γ-tubulin (BAbCo, Berkeley Calif.), or NuMA (Calbiochem, SanDiego Calif.) for 40 minutes in a humidified chamber at 37° C. Coverslips were washed for 15 minutes in PBS-Tx followed by a 40 min incubation with a fluorescently labeled secondary antibody (Jackson Immunoresearch, West Grove Pa.). For double labeling the respective primary and secondary antibodies were combined. The coverslips were again rinsed in PBS-Tx and incubated with 5 μM Toto−3 (Molecular Probes, Eugene Oreg.) for 20 minutes to label the DNA. Coverslips were immediately inverted onto slides in Vectashield (Vector Labs, Burlingame, N.H.) to prevent photobleaching, sealed with nail polish and stored at 4° C. Bovine oocytes were processed for immunocytochemistry as described previously. Navara et al., Dev. Biol., 162: 29-40, 1994.
Slides were examined using a Bio-Rad MRC-1024 Laser Scanning Confocal Microscope mounted on a Nikon Eclipse E800 upright microscope with high numerical aperture objectives. Digital data was processed using Lasersharp (Bio-Rad, Hercules Calif.) and Photoshop (Adobe Systems Mountain View Calif.) software and printed on a Pictrography printer (Fuji Photo Elmsford, N.Y.).

[2] = system: MDA-MB-231 breast cancer cells; assay: MTT cytotoxicity assay; assay type: cell-based, human; conditions: MDA-MB-231, 48 hours; read-out: IC50 (inhibition of cellular proliferation, MTT)
Procedure: as §1
(§2) The cytotoxicity of VDC and VDacac against the human tumor cell lines discussed above was assayed using the MTT (3-[4,5-dimethylthiazol-2-yl]-2,5-diphenyl tetrazolium bromide) assay (Boehringer Mannheim Corp., Indianapolis, Ind.). Briefly, exponentially growing tumor cells were seeded into a 96-well plate at a density of 2.5×10^4 cells/well and incubated for 36 hr at 37° C. prior to drug exposure. On the day of treatment, culture medium was carefully aspirated from the wells and replaced with fresh medium containing VDC or VDacac at concentrations ranging from 3.9 to 500 μM. Triplicate wells were used for each treatment. The cells were incubated with the vanadium compounds for 48 hours at 37° C. in a humidified 5% CO2 atmosphere. To each well, 10 μl of MTT (0.5 mg/ml final concentration) was added and the plates were incubated at 37° C. for 4 hours to allow MTT to form formazan crystals by reacting with metabolically active cells. The formazan crystals were solubilized overnight at 37° C. in a solution containing 10% SDS in 0.01 M HCl. The absorbence of each well was measured in a microplate reader (Labsystems, Helsinki, Finland) at 540 nm and a reference wavelength of 690 nm. To translate the OD540 values into the number of live cells in each well, the OD540 values were compared to those on standard OD540—versus—cell number curves generated for each cell line. The percent survival was calculated using the formula: % survival=Live cell number[test]/Live cell number [control]×100. The IC50 values were calculated by non-linear regression analysis using Graphpad Prism software version 2.0 (Graphpad Software, Inc., San Diego, Calif.).

[3] = system: BT-20 breast cancer cells; assay: MTT cytotoxicity assay; assay type: cell-based, human; conditions: BT20, 48 hours; read-out: IC50 (inhibition of cellular proliferation, MTT)
Procedure: as §1, §2

[4] = system: U373 glioblastoma cells; assay: MTT cytotoxicity assay; assay type: cell-based, human; conditions: U373, 48 hours; read-out: IC50 (inhibition of cellular proliferation, MTT)
Procedure: as §1, §2

[5] = system: Zebrafish embryos; assay: Microinjection of Zebrafish embryos, cell division and development observed; assay type: in vivo, Zebrafish (Danio rerio)
Source text: VDC and VDacac were microinjected into Zebrafish embryos at room temperature, using a SMZ-10A stereo microscope (Nikon, Melville, N.Y.) and Transjector 5246 (Eppendorf, Westbury, N.Y.). Dechorionated Zebrafish embryos at the two-cell stage were transferred to a Petri dish filled with embryonic medium. The bottom of the Petri dish was covered with an agar layer, and the embryos were placed in grooves in agar, exactly as described in Westerfield, M., The Zebrafish Book, Supra. Microinjections were performed under visual control. At the 2-4 cell stage, approximately 2 nL of the compound dissolved in Hank's Balanced Salt Solution (HBSS) (Gibco, Rockville, Md.) with 10% DMSO was injected into the cytoplasm of one of the blastomeres through a constantly flowing micropipette with a splinted sharp tip of 2-3 μm diameter. Sham-treated control embryos were injected with 2 nL of HBSS containing 10% DMSO. After the treatment, the embryos were transferred to standard temperature, 28.5° C.
(§3) Observations of cell division and development of the Zebrafish embryos were carried out using a SMZ-10A stereo microscope, once every 30 minutes within the first 3 hours of incubation and at 6, 12 and 24 hours, as well. […] The stereo microscope was fitted with a specially designed transparent heating tray in order to keep embryos at ST during observations. Pictures of the embryos were taken with a H-III Photomicrographic System (Nikon) using Ektachrome 64X film (Kodak, Rochester, N.Y.).

[6] = system: Zebrafish embryos; assay: Zebrafish embryo model system: embryos exposed to compound in medium, cell division observed; assay type: in vivo, Zebrafish (Danio rerio); conditions: for inhibition of mitosis in treated embryos: 10 μM to 4 mM in medium; for effect on embryo development: 120 minutes; for effect on embryo cell division: thirty minutes after treatment
Procedure: Two-cell stage Zebrafish embryos were dechorionated with 1% trypsin-EDTA and treated with 1% DMSO at a temperature of 28.5° C. Zebrafish embryos were removed from their chorions by mild digestion in 1% Trypsin-EDTA (Sigma, St. Louis, Mo.) for 10 minutes at 28.5° C. (Standard temperature - ST), washed three times in “egg water” and twice in “embryonic medium” (EM) as described in Westerfield, M., The Zebrafish Book, Supra. The dechorionated two-cell stage cleaving eggs/embryos were transferred to the 24-well plastic cell culture plates (Costar, Cambridge, Mass.) filled with EM. Dechorionated embryos (10-12 per well) were exposed to VDC and VDacac at a constant ST for 0.5-24 hours. The final volume of the medium in each well was 500 μL. Both compounds were used at concentrations ranging from 10 μM to 4 mM. The compounds were dissolved in DMSO and then diluted serially with the incubation medium. The final concentration of DMSO in the wells was 1.2%. The sham-treated control embryos were incubated in EM in the presence of 1.2% DMSO.
as §3

[7] = system: pharyngonasal cancer; conditions: single assay, Sakurai et al. 1995; cited from earlier work
[8] = system: dynein ATPase activity found in sperm axonemes; conditions: 100 μM
Procedure: The effect of VDC on ATPase and GTPase activity was determined by isolating sperm axonemes after treatment of human sperm with 100 μM VDC. Sperm were pelleted by centrifugation 1900×g for 15 min, washed twice in cold PBS, resuspended in extraction buffer (1.0% Triton X-100, 0.1 M NaCl, 4 mM MgSO4, 1 mM CaCL2, 0.1 mM EDTA, 0.1 mM ATP, 7 mM 2-mercaptoethanol, and 5 mM imidazole buffer pH 7.0) and disrupted using a Dounce homogenizer. This homogenized suspension was centrifuged at 1500×g for 5 min to remove sperm heads and the resulting supernatant was recentrifuged at 12,000×g to recover the broken axonemes.
The axoneme pellet was resuspended in extraction buffer to remove residual membrane material, centrifuged at 1500×g for 5 min to remove residual sperm heads followed by centrifugation at 12,000×g to recover axonemes. The recovered axonemes were washed three times in extraction buffer lacking Triton X-100 and resuspended in solubilization buffer (0.6 M NaCl, 4 mM MgSO4, 1 mM CaCl2, 0.1 mM EDTA, 1 mM DTT, 7 mM 2-mercaptoetanol, 5 mM imidazole buffer pH 7.0) to solubilize the readily extractable motor protein dynein. The suspension was then centrifuged at 12,000×g. […] ATPase activity was measured using the EnzChek Phophate assay kit (Molecular Probes, Eugene Oreg.) according to manufacturers instructions.

[9] = system: tumor cell; conditions: Kopf-Maier et al. 1983; cited from earlier work
[10] = system: germinal vesicle stage bovine oocytes; conditions: 24 hours; for oocytes matured to metaphase of meiosis II (MII): control 93%
Procedure: Immature oocytes were recovered from bovine ovaries after slaughter by aspiration of 5 mm follicles. Only oocytes having a homogenous cytoplasm and surrounded by at least three layers of cumulus cells were selected. These were washed through three rinses of Hepes buffered Tyrode's media (114 mM NaCl, 3.2 mM KCl, 2 mM CaCl22H2O, […] MgCl26H2O, 25 mM NaHCO3, 0.4 mM NaH2PO4, 10 mM Na lactate, 100 I.U./ml Penicillin)(TL-Stock) modified with 10 mM Hepes, 1 mg/ml BSA, 0.2 mM pyruvate, and 25 μg/ml gentamicin (TL-Hepes; (16). Oocytes were matured for 24 hours in 50 μl drops of TC199 modified with 10% fetal bovine serum, 5 μg/ml FSH-p, 25μg/ml gentamicin, 1 μg/ml estrogen at 39° C. in 5% CO2 under mineral oil (17). After the oocytes were placed in the drops, 25 or 50 μM VDC was added in DMSO. Equal amounts of DMSO were added to control drops. Bovine oocytes were processed for immunocytochemistry after 24 hours.
Germinal vesicle stage bovine oocytes were matured in vitro in the presence of vehicle or VDC (25 μM or 50 μM). After 24 hours, these oocytes were fixed, labeled with anti-tubulin antibodies and the DNA dye TOTO−3. Oocytes were scored according to their stage in meoisis, microtubule organization and chromosome number.

CC(=O)C=C(C)[O-].O=S(=O)([O-])C(F)(F)F.[V+4].c1cc[cH-]c1.c1cc[cH-]c1 [VDacac, Vanadocene acetylacetonato monotriflate]
mitotic spindle morphology (α-tubulin, DNA) [1]: aberrant monopolar mitotic structures | IC50 [2]: 9.1 µM | IC50 [3]: 26.9 µM | IC50 [4]: 35.5 µM | effect on embryonic development after microinjection ([5]; 1 pmoL microinjected (lower)): formation of a blastocoel-like cavity in the blastoderm and prevented gastrulation | effect on embryonic development after microinjection ([5]; 49 pmoL microinjected (higher)): deterioration of cell localization and development failure | inhibition of mitosis in treated embryos [6]: inhibited mitosis in a concentration-dependent fashion | effect on embryo development ([6]; 0.4 mM): developed similar defects | effect on embryo cell division ([6]; 0.6 mM): cell division defects followed by fusion of the embryonic cells

O.O.O=S(=O)([O-])[O-].[O]=[V+2].c1cnc2c(c1)ccc1cccnc12 [[VO(Phen)(H2O)2](SO4), (diaqua)(1,10-phenanthroline)oxovanadium (IV) sulfate]
activity against pharyngonasal cancer [7]: active agent against pharyngonasal cancer

Vanadocene dichloride [VDC]
NuMA localization [1]: only localized to one side of the mitotic spindle | γ-tubulin spindle pole labeling [1]: two foci of γ-tubulin on the same side of the chromosomes | mitotic spindle morphology (α-tubulin, DNA) [1]: aberrant monopolar mitotic structures | inhibition of ATPase activity found in axonemes ([8]; four separate experiments): 12.2% | ATPase activity found in axonemes ([8]; control 0.08±0.01): 0.07±0.02 | tumor cell growth [9]: arrest tumor cell growth | IC50 [2]: 11 µM | IC50 [3]: 14.9 µM | IC50 [4]: 18.6 µM | effect on embryonic development after microinjection ([5]; 0.64 pmol microinjected (lowest)): formation of a blastocoel-like cavity in the blastoderm and prevented gastrulation | effect on embryonic development after microinjection ([5]; 32 pmol microinjected (higher)): cell division slow-down and total disarray of cell localization and development arrest | effect on embryonic development after microinjection ([5]; 58 pmol microinjected (highest)): total cell fusion within 30 minutes of microinjection | inhibition of mitosis in treated embryos [6]: inhibited mitosis in a concentration-dependent fashion | effect on embryo development ([6]; 0.76 mM): developed abnormal blastulae | effect on embryo cell division ([6]; 1.9 mM): cell division defects followed by fusion of the embryonic cells | oocytes matured to metaphase of meiosis II (MII) ([10]; 25 μM): 16.2% | oocytes matured to metaphase of meiosis II (MII) ([10]; 50 μM): 10.0% | oocytes with abnormal meiotic spindles ([10]; 25 or 50 μM, control 4%): ≥ 50%
